Key:
NAMECs [1] = assay: Western blot of exosome markers and proteins in CM-P4 fractions of NAMECs; type: cell-based, human; settings: AH23848 0.4, 2, 4 μg/ml; AH6809 0.8, 4, 8 μg/ml; GW 1 μg/ml
From the text: FIG. 2 includes graphs and blots showing analyses of GW-treated NAMEC P4 fractions. CM-P4 GW-treated NAMECs were collected and subjected to (A) NanoSight Nanoparticle Tracking Analysis (NTA) and (B) Dynamic Light Scattering/Zeta Potential Analysis (DLS). […] D: particle diameter. RN: relative number. (C) is a blot showing the amounts of the CD44 stem cell marker and the CD81, CD9, TSG101, Alix, HSP70 and GAPDH exosome markers measured in the indicated CM-P4 fractions and cell lysates. The culture media and cell lysates were collected from the same number of NAMECs treated with vehicle (Crl), GW627368X (GW) or PGE2 (1 μM) for 4 days. (D) is a blot showing the amounts of the GAPDH and CD81 exosome markers and the CD44 stem cell marker measured in the CM-P4 fraction of NAMECs (CD44hi/CD24− stem cells) or CD44lo/CD24+ non-stem cells (HMLE cells) treated with vehicle (Crl) or GW for 2 days. 1×: P4 exosome fraction released by 1×10^6 cells; 2×: P4 exosome fraction released by 2×10^6 cells. […] (E) is a blot showing that the CD44 stem cell marker and GAPDH and CD81 exosome markers were measured in the indicated P4 conditioned medium fractions of NAMECs treated with vehicle (Crl), GW627368X (GW, 1 μg/ml), AH23848 (EP4 antagonist; 0.4, 2, 4 μg/ml), or AH6809 (EP1/2/3 antagonist; 0.8, 4, 8 μg/ml). (F) is a blot showing the HSP70, GAPDH and CD81 exosome markers measured in the indicated CM-P4 of NAMECs, NAMEC-shEP4-1 cells, and NAMEC-shEP4-2 cells treated with vehicle or with doxycycline (Dox, 2 μg/ml) (top panel). Doxyclycline (Dox) induced the production EP4 shRNA in NAMEC-shEP4 cells (bottom panel).
The P4 exosome fractions and cell lysates were collected from NAMECs treated with vehicle (Crl), GW627368X (GW), or PGE2 for 4 days. 1×: P4 exosome fraction released by 2.5×10^5 cells; 5×: P4 exosome fraction released by 12.5×10^5 cells. Hg: Hg-integrin β1, Lg: Lg-integrin β1, H: H-integrin α6, L: L-integrin α6, pg: pg-LRP6, g: g-LRP6, Ng: Ng-LRP6.
(§1) The isolated human mammary epithelial stem cells (NAMECs) were cultured in mammary epithelial cell basal medium (250 ml MCDB-170, 250 ml DMEM-F12, 1.2 g sodium bicarbonate, 2.5 μg EGF, 0.25 mg Hydrocortisone, 2.5 mg insulin, 35 mg BPE) with or without containing EP4 antagonist, i.e., GW627368X (GW) at 1 μg/ml, or AH23848 (AH) at 4 μg/ml, for 4 days. The culture medium was supplied with 0.5 μg/ml of GW or 2 μg/ml of AH23848 at the third day of the culturing period. For the induction of EP4 antagonist-induced exosomes from mouse mammary epithelial cells, cells were cultured in a medium containing 10 μg/ml of GW for 4 days.
The culture media were centrifuged at 300 g for 5 min to remove cells (P1), at 2,000 g for 20 min (P2), then at 10,000 g for 30 min (P3) all at 4° C. Dead cells and cell debris were removed at 300 g (P1) and 1200 g (P2). […]

NAMECs [2] = assay: NanoSight Nanoparticle Tracking Analysis of CM-P4 fractions of NAMEC culture; type: cell-based, human; settings: CM-P4 fraction, 4 days; PGE2 1 μM
From the text: FIG. 1 includes a TEM image and a graph. (A) is a TEM image of the P4 medium fraction of NAMECs treated with GW627368X (GW) for 4 days. Scale bar, 1 μm. (B) is a graph showing the number of particles in the CM-P4 fractions of NAMEC culture counted by using NanoSight Nanoparticle Tracking analysis. Top panel: Quantification of exosome release is shown as the ratio of [P4 GAPDH marker level]/[cell number]. Data are means±SEM (n=3). *P≤0.05. **P≤0.005. Bottom table: Quantification of exosome release is shown as the number of particles of the CM-P4 fractions released per cell measured by nanoparticle tracking analysis.
as §1
The culture media were centrifuged at 300 g for 5 min to remove cells (P1), at 2,000 g for 20 min (P2), then at 10,000 g for 30 min (P3) all at 4° C. Dead cells and cell debris were removed at 300 g (P1) and 1200 g (P2). Finally, exosomes (P4) were separated from the supernatant by centrifugation at 110,000 g for 60 min. The P4 exosome pellet was washed once in PBS and then re-suspended in PBS for further application.

NAMEC-R cells = assay: NTA of EV release from Ras-transformed NAMEC-R cells; type: cell-based; settings: CM-P4, 4 days; GW 1 μg/ml; SQ 120 and 240 nM
Protocol: Vesicles in the P4 fractions were counted using NTA. Data are means±SEM (n=6). ***P≤0.001; (B) The Alix, TSG101, CD63, CD81 and GAPDH exosome markers were measured in the CM-P4 fractions of NAMEC-R cells treated with vehicle (Crl), GW627368X (GW, 1 μg/ml), SQ 29,548 (SQ120/SQ240; 120 nM and 240 nM); (C) The mesenchymal marker N-cadherin, CSC markers and exosome markers were analyzed in the conditioned medium P4 fraction derived from equal numbers of vehicle-treated NAMEC-R cells (Crl), GW-treated NAMEC-R cells (GW, 1 μg/ml GW627368X for 4 days) and SQ 29,548-treated NAMEC-R cells (SQ120/SQ240; 120 nM and 240 nM for 4 days). The longer GAPDH(L) and CD81(L) exposures show the low, but detectable, presence of GAPDH and CD81 in the conditioned medium P4 fraction of vehicle-treated NAMEC-R cells.
We further investigated whether EP4 antagonism and TP receptor antagonism (as GW has partial affinity to the human TP receptor) affected EV release from transformed mammary epithelial stem cells. Four-day conditioned media of vehicle, GW-, or SQ (a TP antagonist)-treated Ras-transformed NAMEC mammary stem cells (NAMEC-R) were collected and subjected to differential ultracentrifugation to isolate EVs released by the cells. The numbers of vesicles in CM-P4 fractions were determined using NTA (FIG. 20, A). EP4 antagonism elicited release of ˜5000 vesicles per NAMEC-R cell. […]

| Structure (SMILES) | exosome release by exosome markers in CM-P4 fractions (NAMECs [1]) | other results |
| --- | --- | --- |
| CC(C)Oc1ccc2c(=O)c3cc(C(=O)O)ccc3oc2c1 [AH6809] | not significantly induced | – |
| O=C(O)CC/C=C\CC[C@H]1[C@H](N2CCOCC2)C(=O)C[C@H]1OCc1ccc(-c2ccccc2)cc1 [AH23848] | induced in a dose-dependent manner | – |
| CCCCC[C@H](O)/C=C/[C@H]1[C@H](O)CC(=O)[C@@H]1C/C=C\CCCC(=O)O [PGE2, prostaglandin E2] | – | concentration of released membrane vesicles (NAMECs [2]): ~0.5×10^4 particle/cell |
| O=C(O)CCC/C=C\C[C@@H]1[C@H](CNNC(=O)Nc2ccccc2)[C@H]2CC[C@@H]1O2 [SQ 29,548] | – | vesicles released per cell (NAMEC-R cells): ~1000 vesicles per cell |

Source: patent publication US11149277B2, “Method of producing enriched exosomes” (National Health Research Institutes, priority 2016, dated 2021)
